Results on one compound are retold here after US20200003756A1, “METHOD FOR OBSERVING SEBACEOUS GLAND” (MANDOM CORPORATION, priority 2017, published 2020).

The subject of test [1] is sebaceous-gland-structure A. Description: Degree of sebum production from three-dimensional image analysis of outermost layer (Example 4). As to conditions: linoleic acid 1×10^−4 M, 24 hours. It counts as cell-based. Here is the method: Linoleic acid and phytic acid as test substances were added to the mixed medium obtained in Preparation Example 1 (test sample A) so that the concentration of linoleic acid was 1×10^−4M and so that the concentration of the test sample was 100 μM, to obtain a test sample E. One milliliter of the test sample A was added to each well of a 24-well plate. Text, the sebaceous-gland-structure A obtained in Preparation Example 6 was cultured in a suspended state in the test sample A contained in each well of the 24-well plate in the presence of 5% by volume carbon dioxide at 37° C. for 24 hours, to contact the sebaceous-gland-structure A with the test sample A (Experiment number 10). In addition, the sebaceous-gland-structure A was contacted with the test sample B (Experiment number 11) or the test sample E (Experiment number 12) in the same manner as in Experiment, number 10 except that in Experiment number 10, the test sample B obtained in Example 1(1) (Experiment number 11) or the test sample E obtained in Example 4(1) (Experiment number 12) was used in place of the test sample A. Each of observation samples of Experiment numbers 10 to 12 was obtained in the same manner as in Preparation Example 7 except that in Preparation Example 7, the cultured sebaceous-gland-structure A obtained in Example 4(2) (Experiment numbers 10 to 12) was used in place of the cultured sebaceous-gland-structure A obtained in Preparation Example 6. The appearance of the sebaceous-gland-structure A contained in the observation sample of each of Experiment numbers 10 to 12 obtained in Example 4(3) was observed under a confocal microscope by using image analysis software (manufactured b Bitplane AG, trade name: Imaris), thereby giving three-dimensional image of the sebaceous-gland-structure A. Next, information of the outermost layer of the sebaceous-gland-structure A was extracted from the data of the resulting three-dimensional image by using image analysis software (manufactured by Bitplane AG, trade name: Imaris). Thereafter, the whole volume of the cells present in the outermost layer was calculated from the extracted information, and thereafter the sebum droplets contained in the outermost layer were counted. Using the whole volume of the cells present in the outermost layer and the number of lipid droplets of the sebum the degree of sebum production was calculated according to Formula (I): [Degree of Sebum production]=[Number of lipid droplets of sebum]/[Whole volume of cells present in outermost layer] (I)

Test [2] relates to sebaceous-gland-structure A. Kind of test: Observation of inside of sebaceous-gland-structure, lipid droplets of sebum in outermost layer / degree of progress of sebum production (Example 2). It counts as cell-based. As to conditions: test sample B, linoleic acid 1×10^−4 M, 24 hours (Experiment number 8); FIGS. 8 and 10. Here is the method:
Linoleic acid and linoleic acid receptor antagonist (manufactured by Abeam plc, trade name: GSK-3787) as test substances were added to the mixed medium obtained in Preparation Example 1 so that the concentration of linoleic acid was 1×10^−4 M and so that the concentration of the test substance was 1 μM, to obtain a test sample D.
One milliliter of the test sample A was added to each well of a 24-well plate. Next, the sebaceous-gland-structure A obtained in Preparation Example 6 was cultured in a suspended state in the test sample A in each well of the 24-well plate in the presence of 5% by volume carbon dioxide at 37° C. for 24 hours, to contact the sebaceous-gland-structure A with the test sample A (Experiment number 7). […]
Furthermore, the state of each cell of 40 cells in the outermost layer shown in each figure was evaluated by using the results shown in FIGS. 7 to 9 on the basis of the evaluation criterion described below. […]
Next, the degree of progress of sebum production in the sebaceous gland cell contained in the sebaceous-gland-structure A was evaluated by calculating the mean value of the points in the 40 cells in the outermost layer in FIGS. 7 to 9. […]

Consider `CCCCC/C=C\C/C=C\CCCCCCCC(=O)O` [linoleic acid, Linoleic acid], for which, in test [1] (conclusion from FIG. 11), the sebum production-regulating action entry was “sebum production-promoting action”. The “degree of sebum production (number of lipid droplets of sebum / whole volume of cells present in outermost layer)” value in test [1] (test sample B, compared with test sample A not containing linoleic acid, FIG. 11) is “higher”. Moreover, the “lipid droplets of sebum in the outermost layer of the sebaceous-gland-structure A” value in test [2] is reported as “lipid droplets of sebum were found”.
